Reference: PubChem BioAssay AID1996
≈ marks a conversion by molar mass, not a printed value.

settings: buffer; pH 7.4; 200.0 µM

Structure (SMILES)	solubility kinetic
CCOC(=O)CC1C(=O)NCCN1C(=O)c1ccc(Cl)cc1 (stereo unspecified)	> 48.7 µg/mL
O=C(N[C@@H](Cc1ccccc1)C(=O)N1CCN(S(=O)(=O)c2ccccc2F)CC1)c1ccco1	23.7 µg/mL (≈ 48.8 µM)
C=C(C)CN(CC)c1ccc(N2C(=O)CCCC2=O)cc1[N+](=O)[O-]	17.8 µg/mL (≈ 53.7 µM)
O=C(Nc1ccc(F)c(Cl)c1)c1cccnc1	24.5 µg/mL (≈ 97.7 µM)
O=C(O/N=C1\CCS(=O)(=O)c2sccc21)C1CC1	> 42.8 µg/mL
O=S(=O)(c1ccc(F)cc1)N1CCCCC1c1cccnc1 (stereo unspecified)	> 48.1 µg/mL
COc1ccc(CNC(=O)C2CCN(S(C)(=O)=O)CC2)c(OC)c1	> 53.5 µg/mL
Cc1cc(Br)ccc1NC(=O)C1C2CCC(O2)C1C(=O)O (stereo unspecified)	> 53.1 µg/mL
O=C(OCC(=O)N1CCCCC1)c1ccc(OC(F)(F)F)cc1	16.2 µg/mL (≈ 48.9 µM)
O=C(NC1CC1)C1CC(=O)N(c2cccc(Cl)c2)C1 (stereo unspecified)	> 41.8 µg/mL
Cc1ncc([N+](=O)[O-])n1CC(=O)Nc1ccc(Br)cc1	9.9 µg/mL (≈ 29.2 µM)
COc1cccc(C(=O)N2CCC(C(=O)N3CCN(C)CC3)CC2)c1	> 51.8 µg/mL
O=C(NCCN1CCCCC1)c1ccc(F)cc1Cl	> 42.7 µg/mL
CCc1ccc2nc(SCC(=O)NCC3CCCO3)c(C#N)cc2c1 (stereo unspecified)	1.9 µg/mL (≈ 5.35 µM)
COc1ccc(S(=O)(=O)N(C)CC(=O)NCc2ccccn2)cc1	37.6 µg/mL (≈ 108 µM)
CCCCC(=O)Nc1cccc(-c2nc3ncccc3o2)c1C	> 46.4 µg/mL
CCOC(=O)Cn1nc2sc3ccccc3n2c(=O)c1=O	> 45.8 µg/mL
CCn1ncc(-c2ccnc3cc(C(=O)O)nn23)c1C	> 40.7 µg/mL
COC(=O)c1[nH]c2ccccc2c1CN1CCOCC1	> 41.1 µg/mL
COC(=O)c1sccc1NC(=O)Nc1ccc(OC)c(OC)c1	> 50.5 µg/mL
Cc1ccc(NC(=O)Cc2ccc(-c3ccccc3)cc2)nc1	5.7 µg/mL (≈ 18.9 µM)

Structure (SMILES)	solubility kinetic
COCCCNC1=C(Cl)C(=O)c2ccccc2C1=O	35.5 µg/mL (≈ 127 µM)
CSc1ccccc1C(=O)Nc1ccc2c(c1)CCC2	16.8 µg/mL (≈ 59.3 µM)
C=CCn1c(SCC#N)nc2sc(CC)cc2c1=O	7 µg/mL (≈ 24 µM)
O=C(Cc1ccccc1F)NC1CCCc2ccccc21 (stereo unspecified)	16.7 µg/mL (≈ 58.9 µM)
CCCN1CCN(S(=O)(=O)c2cn(C)nc2C)CC1	> 43 µg/mL
CCc1c(C)nc(N2CCN(c3cccc(OC)c3)CC2)[nH]c1=O	15.8 µg/mL (≈ 48.1 µM)
COc1ccccc1OCCNC(=O)C(c1ccccc1)c1ccccc1	2.2 µg/mL (≈ 6.09 µM)
Cc1ccc(C(C)NC(=O)c2ccncc2)cc1C (stereo unspecified)	> 38.1 µg/mL
O=C(COc1ccc(Cl)cc1)NCc1ccncc1	> 41.5 µg/mL
O=C(COC(=O)c1ccc2ncsc2c1)NCc1ccccc1Cl	10.4 µg/mL (≈ 28.8 µM)
O=C1CC(Sc2ncccc2C(=O)O)C(=O)N1 (stereo unspecified)	> 37.8 µg/mL
NC(=O)C1CCN(CCC(=O)Nc2ccc(F)c(F)c2)CC1	> 46.7 µg/mL
O=c1[nH]c(=S)n(C2CC2)c(O)c1C=NCC1CCCO1 (stereo unspecified)	> 44.3 µg/mL
Cc1ccc(-c2csc3nc[nH]c(=O)c23)c(C)c1	2.4 µg/mL (≈ 9.36 µM)
Cc1ccc(C(=O)Oc2ccccc2N2CCOCC2)cc1	4.9 µg/mL (≈ 16.5 µM)
N/C(=N\OC(=O)c1ccccc1)c1ccncc1	34.8 µg/mL (≈ 144 µM)
CCOc1ccccc1N1CC(C(=O)N2CCOCC2)CC1=O (stereo unspecified)	44.6 µg/mL (≈ 140 µM)
CSc1nc(-c2ccc(C)cc2)nc(N)c1C#N	< 0.1 µg/mL
CSc1nc2ccc(Br)cc2[nH]1	35.7 µg/mL (≈ 147 µM)
Cn1c(N)c(C(=O)COC(=O)Cc2ccc(Br)cc2)c(=O)n(C)c1=O	0.7 µg/mL (≈ 1.71 µM)
COc1ccc(C2CN(C)CC2C(=O)c2ccc(C)cc2)cc1Cl (stereo unspecified)	40.1 µg/mL (≈ 117 µM)

Structure (SMILES)	solubility kinetic
O=S(=O)(c1cccs1)N1CCN(c2ccccc2)CC1	1.4 µg/mL (≈ 4.54 µM)
O=C(Nc1cnccn1)c1ccc(F)cc1Cl	> 37.7 µg/mL
CC(=O)Nc1ccc(NC(=O)c2sc(-c3ccccc3)nc2C)cc1	0.9 µg/mL (≈ 2.56 µM)
Cc1ccccc1CNC(=O)COc1ccccc1	> 38.3 µg/mL
NC(=O)c1ccc(NC(=O)CCNC(=O)c2ccco2)cc1	41.2 µg/mL (≈ 137 µM)
CC(=O)Nc1cccc(-c2csc(Nc3ccc(Cl)cn3)n2)c1	0.5 µg/mL (≈ 1.45 µM)
O=C(O)c1[nH]c2ccc([N+](=O)[O-])cc2c1-c1ccccc1	> 42.3 µg/mL
Cc1c(C(=O)N2CCCC2)oc2ccc(Br)cc12	25.1 µg/mL (≈ 81.4 µM)
COc1ccc(C(=O)c2nc3ccccc3n2C(C)C)cc1OC	46.1 µg/mL (≈ 142 µM)
COc1ccccc1NC(=S)N(C(C)C)C(C)c1ccccn1 (stereo unspecified)	37.8 µg/mL (≈ 115 µM)
NNC(=O)Cn1c(-c2ccccc2)cc2ccccc21	> 39.8 µg/mL
O=C(CN1CCN(Cc2ccc3c(c2)OCO3)CC1)Nc1ccc2[nH]c(=O)[nH]c2c1	> 61.4 µg/mL
COc1cc2c(cc1OC)CN(CC(=O)Nc1ccc(F)cc1)CC2	39 µg/mL (≈ 113 µM)
COc1ccc(CN(C)C(=O)CNC(=O)c2ccc(C)cc2)cc1	> 49 µg/mL
NC(=O)NC(Cc1ccccc1)C(=O)NNC(=O)COc1ccccc1Cl (stereo unspecified)	> 58.6 µg/mL
O=C(Cn1c(=O)n(CC2CS2)c2ccccc21)N1CCCCC1 (stereo unspecified)	> 49.7 µg/mL
Cc1ccccc1C(=O)NCCOc1ccccc1Cl	40.4 µg/mL (≈ 139 µM)
COc1ccc(CCNC(=O)CSc2nc3scc(-c4ccccc4)c3c(=O)[nH]2)cc1	2 µg/mL (≈ 4.43 µM)
Nc1ccccc1C(=O)NCC1(c2ccccc2)CCCC1	> 44.2 µg/mL
